Source: patent publication US20240018161A1, “MODULATORS OF CYSTIC FIBROSIS TRANSMEMBRANE CONDUCTANCE REGULATOR” (VERTEX PHARMACEUTICALS INCORPORATED, priority 2020, published 2024)
Where two headings read alike, the source gives them in different places. Blank lines part the entries; values can stand above or below the molecule they belong to.

Legend:
[1] = from 3-[[4-[(1-benzylpiperazin-2-yl)methoxy]-6-(2,6-dimethylphenyl)pyrimidin-2-yl]sulfamoyl]benzoic acid (Dihydrochloride salt); amide bond; 14-membered ring; HATU/DIEA; DMF; 12.7 mM; 25.0 °C; 3 steps
[2] = target: T1, CFTR-mediated short-circuit current in F508del/MF-HBE cells (Homo sapiens, UniProt P13569, DEL508-508); test: HBE assay: Ussing chamber assay of CFTR-mediated short-circuit currents; format: cell-based; conditions: for Emax: read-out: HBE Max Activity (%)
T1 construct: human bronchial epithelial (HBE) cells derived from CF subjects; endogenous in cells; host or cells: primary human bronchial epithelial cells from CF subjects (F508del/MF-HBE)
Description: (§1) 1. Ussing Chamber Assay of CFTR-Mediated Short-Circuit Currents
(§2) Ussing chamber experiments were performed using human bronchial epithelial (HBE) cells derived from CF subjects heterozygous for F508del and a minimal function CFTR mutation (F508del/MF-HBE) and cultured as previously described (Neuberger T, Burton B, Clark H, Van Goor F Methods Mol Biol 2011:741:39-54). After four days the apical media was removed, and the cells were grown at an air liquid interface for >14 days prior to use.
(§3) To isolate the CFTR-mediated short-circuit (ISC) current, F508del/MF-HBE grown on Costar® Snapwell™ cell culture inserts were mounted in an Ussing chamber and the transepithelial ISC was measured under voltage-clamp recording conditions (Vhold=0 mV) at 37° C. The basolateral solution contained (in mM) 145 NaCl, 0.83 K2HPO4, 3.3 KH2PO4, 1.2 MgCl2, 1.2 CaCl2), 10 Glucose, 10 HEPES (pH adjusted to 7.4 with NaOH) and the apical solution contained (in mM) 145 NaGluconate, 1.2 MgCl2, 1.2 CaCl2, 10 glucose, 10 HEPES (pH adjusted to 7.4 with NaOH) and 30 μM amiloride to block the epithelial sodium channel. Forskolin (20 μM) was added to the apical surface to activate CFTR, followed by apical addition of a CFTR inhibitor cocktail consisting of BPO, GlyH-101, and CFTR inhibitor 172 (each at 20 μM final assay concentration) to specifically isolate CFTR currents. The CFTR-mediated ISC (μA/cm^2) for each condition was determined from the peak forskolin response to the steady-state current following inhibition.
(§4) 2. Identification of Corrector Compounds
(§5) The activity of the CFTR corrector compounds on the CFTR-mediated ISC was determined in Ussing chamber studies as described above. The F508del/MF-HBE cell cultures were either incubated with the corrector compounds at a range of concentrations in combination with 1 μM Ivacaftor or were incubated with the corrector compounds at a single fixed concentration of 10 μM in combination with 1 μM Ivacaftor for 18-24 hours at 37° C. and in the presence of 20% human serum. The concentration of corrector compounds with 1 μM Ivacaftor during the 18-24 hours incubations was kept constant throughout the Ussing chamber measurement of the CFTR-mediated ISC to ensure compounds were present throughout the entire experiment.
as §3, with “CaCl2,” for “CaCl2),”

[3] = target: T1, CFTR-mediated short-circuit current in F508del/MF-HBE cells; test: HBE2 assay: Ussing chamber assay of CFTR-mediated short-circuit currents; format: cell-based
Description: as §1, §2
as §3, with “CaCl2,” for “CaCl2),”
as §4
as §5, with “44 nM (6R,12R)-17-amino-12-methyl-6,15-bis(trifluoromethyl)-13,19-dioxa-3,4,18-triazatricyclo[12.3.1.12,5]nonadeca-1(18),2,4,14,16-pentaen-6-ol” for “1 μM Ivacaftor”, “1 and 3” for “10”, “[…]” for “20%”

[4] = F508del/MF-HBE cells, 18-24 hours incubation
[5] = F508del/MF-HBE, 18-24 hours with 1 μM Ivacaftor, 20% human serum, compared to known Vertex corrector with Tezacaftor and Ivacaftor
[6] = F508del/MF-HBE, 18-24 hours with 1 μM Ivacaftor, 20% human serum, read-out: HBE EC50

T1 sequence (P13569 with tags, fused parts or gaps DEL508-508): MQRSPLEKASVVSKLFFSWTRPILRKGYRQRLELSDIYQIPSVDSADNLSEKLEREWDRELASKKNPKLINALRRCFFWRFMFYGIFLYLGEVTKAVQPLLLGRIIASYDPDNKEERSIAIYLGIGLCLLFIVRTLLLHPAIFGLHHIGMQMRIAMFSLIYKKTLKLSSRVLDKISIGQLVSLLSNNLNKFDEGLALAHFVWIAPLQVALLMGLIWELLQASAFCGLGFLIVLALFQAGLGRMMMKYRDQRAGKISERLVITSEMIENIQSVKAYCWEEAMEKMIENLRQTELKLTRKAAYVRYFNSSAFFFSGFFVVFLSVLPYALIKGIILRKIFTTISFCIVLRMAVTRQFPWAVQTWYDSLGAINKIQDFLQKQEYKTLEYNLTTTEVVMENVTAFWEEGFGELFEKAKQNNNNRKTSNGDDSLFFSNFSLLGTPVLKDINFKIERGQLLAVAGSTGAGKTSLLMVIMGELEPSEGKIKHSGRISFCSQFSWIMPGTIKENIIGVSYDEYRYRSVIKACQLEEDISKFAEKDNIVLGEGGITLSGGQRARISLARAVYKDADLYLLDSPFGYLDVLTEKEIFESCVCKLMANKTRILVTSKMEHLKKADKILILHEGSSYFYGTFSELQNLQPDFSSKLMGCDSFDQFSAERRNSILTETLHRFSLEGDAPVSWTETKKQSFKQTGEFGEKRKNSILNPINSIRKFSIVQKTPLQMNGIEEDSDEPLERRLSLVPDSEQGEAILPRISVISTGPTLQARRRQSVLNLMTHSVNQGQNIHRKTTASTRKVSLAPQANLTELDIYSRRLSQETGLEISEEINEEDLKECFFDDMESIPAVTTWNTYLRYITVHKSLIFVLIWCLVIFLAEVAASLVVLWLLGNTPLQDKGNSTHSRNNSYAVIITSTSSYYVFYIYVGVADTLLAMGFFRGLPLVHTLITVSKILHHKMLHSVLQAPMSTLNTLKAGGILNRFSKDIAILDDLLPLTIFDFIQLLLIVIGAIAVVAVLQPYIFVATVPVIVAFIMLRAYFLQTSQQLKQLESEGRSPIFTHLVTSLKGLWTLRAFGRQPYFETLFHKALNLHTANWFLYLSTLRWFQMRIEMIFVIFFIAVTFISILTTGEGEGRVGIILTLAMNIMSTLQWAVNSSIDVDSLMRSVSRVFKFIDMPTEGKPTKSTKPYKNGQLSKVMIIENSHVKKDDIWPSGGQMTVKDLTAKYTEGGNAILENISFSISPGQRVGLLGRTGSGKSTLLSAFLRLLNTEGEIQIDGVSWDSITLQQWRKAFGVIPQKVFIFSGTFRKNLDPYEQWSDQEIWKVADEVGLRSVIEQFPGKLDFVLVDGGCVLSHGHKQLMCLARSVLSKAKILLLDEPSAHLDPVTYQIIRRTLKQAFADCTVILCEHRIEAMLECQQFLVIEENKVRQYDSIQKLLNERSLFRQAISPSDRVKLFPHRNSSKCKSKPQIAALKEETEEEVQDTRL

SMILES: Cc1cccc(C)c1-c1cc2nc(n1)NS(=O)(=O)c1cccc(c1)C(=O)N1CCNC(CO2)C1 (stereo not shown)
ring closure, crude yield [1]: 22%

EC50 [2, 4]: < 1 µM | HBE Max activity (%) [2, 4]: +++ (+++ is >60%)
SMILES: Cc1cccc(C)c1-c1cc2nc(n1)NS(=O)(=O)c1cccc(c1)C(=O)N1[C@@H](c3ncc(OC(C)C)cn3)CC[C@@H](C(C)C)[C@H]1CO2 (single isomer, unassigned) [Compound 388, 13-(2,6-Dimethylphenyl)-4-(5-isopropoxypyrimidin-2-yl)-7-isopropyl-17,17-dioxo-10-oxa-17λ^6-thia-3,14,16,23-tetrazatetracyclo[16.3.1.111,15.03,8]tricosa-1(21),11,13,15(23),18(22),19-hexaen-2-one]

EC50 [2, 4]: 1 to 3 µM | HBE Max activity (%) [2, 4]: + (+ is <30+)
SMILES: Cc1cccc(C)c1-c1cc2nc(n1)NS(=O)(=O)c1cccc(c1)C(=O)N1[C@@H](c3ncc(OC(C)C)cn3)CC[C@@H](C(C)C)[C@H]1CO2 (single isomer, unassigned) [Compound 389, 13-(2,6-dimethylphenyl)-4-(5-isopropoxypyrimidin-2-yl)-7-isopropyl-17,17-dioxo-10-oxa-17λ^6-thia-3,14,16,23-tetrazatetracyclo[16.3.1.111,15.03,8]tricosa-1(21),11,13,15(23),18(22),19-hexaen-2-one]

HBE Activity at 10 μM (%) [2]: +++ (+++ is >60%)
SMILES: Cc1cccc(C)c1-c1cc2nc(n1)NS(=O)(=O)c1cccc(c1)C(=O)N1[C@@H](c3cccc(N(C)C4CC5(CC5)C4)n3)CC[C@@H](C(C)C)[C@H]1CO2 (single isomer, unassigned) [Compound 390, 13-(2,6-dimethylphenyl)-7-isopropyl-4-[6-[methyl(spiro[2.3]hexan-5-yl)amino]-2-pyridyl]-17,17-dioxo-10-oxa-17λ^6-thia-3,14,16,23-tetrazatetracyclo[16.3.1.111,15.03,8]tricosa-1(21),11,13,15(23),18(22),19-hexaen-2-one]

HBE Activity at 10 μM (%) [2]: ++ (++ is 30-60%)
SMILES: Cc1cccc(C)c1-c1cc2nc(n1)NS(=O)(=O)c1cccc(c1)C(=O)N1[C@@H](c3cccc(N(C)C4CC5(CC5)C4)n3)CC[C@@H](C(C)C)[C@H]1CO2 (single isomer, unassigned) [Compound 391, 13-(2,6-dimethylphenyl)-7-isopropyl-4-[6-[methyl(spiro[2.3]hexan-5-yl)amino]-2-pyridyl]-17,17-dioxo-10-oxa-17λ^6-thia-3,14,16,23-tetrazatetracyclo[16.3.1.111,15.03,8]tricosa-1(21),11,13,15(23),18(22),19-hexaen-2-one]

HBE Activity at 10 μM (%) [2]: ++ (++ is 30-60%)
SMILES: Cc1cccc(C)c1-c1cc2nc(n1)NS(=O)(=O)c1cccc(c1)C(=O)N1[C@@H](c3ncc(OC(C)C)cn3)CC[C@@H](CC(C)C)[C@H]1CO2 (single isomer, unassigned) [Compound 392, 13-(2,6-dimethylphenyl)-7-isobutyl-4-(5-isopropoxypyrimidin-2-yl)-17,17-dioxo-10-oxa-17λ^6-thia-3,14,16,23-tetrazatetracyclo[16.3.1.111,15.03,8]tricosa-1(21),11,13,15(23),18(22),19-hexaen-2-one]

activation at 3 µM [3]: > 60% | HBE Activity at 10 μM (%) [2]: +++ (+++ is >60%)
SMILES: Cc1cccc(C)c1-c1cc2nc(n1)NS(=O)(=O)c1cccc(c1)C(=O)N1[C@@H](c3ncc(OC(C)C)cn3)CC[C@@H](CC(C)C)[C@H]1CO2 (single isomer, unassigned) [Compound 393, 13-(2,6-dimethylphenyl)-7-isobutyl-4-(5-isopropoxypyrimidin-2-yl)-17,17-dioxo-10-oxa-17λ^6-thia-3,14,16,23-tetrazatetracyclo[16.3.1.111,15.03,8]tricosa-1(21),11,13,15(23),18(22),19-hexaen-2-one]

HBE Max activity (%) [2, 5]: ++ (++ is 30-60%) | EC50 [2, 6]: 3 to 30 µM
SMILES: Cc1cccc(C)c1-c1cc2nc(n1)NS(=O)(=O)c1cccc(c1)C(=O)N1[C@H](CCC[C@@H]1c1ccccn1)CO2 [Compound 327]

Emax [2, 5]: 30 to 60% | EC50 [2, 6]: 1 to 3 µM
SMILES: Cc1cccc(C)c1-c1cc2nc(n1)NS(=O)(=O)c1cccc(c1)C(=O)N1[C@H](CCC[C@@H]1c1ccccn1)CO2 [Compound 328]

Emax [2, 5]: > 60% | EC50 [2, 6]: < 1 µM
SMILES: Cc1cccc(C)c1-c1cc2nc(n1)NS(=O)(=O)c1cccc(c1)C(=O)N1C(c3ncc(OC(C)C)cn3)CCC(C(C)C)C1CO2 (stereo not shown) [Compound 371]

HBE Activity at 10 μM (%) [2]: +++ (+++ is >60%)
SMILES: Cc1cccc(C)c1-c1cc2nc(n1)NS(=O)(=O)c1cccc(c1)C(=O)N1C(c3ncc(OC(C)C)cn3)CCC(CC(C)C)C1CO2 (stereo not shown) [Compound 414]

HBE2 Activity at 3 μM (%) [3]: + (+ is <30+)
SMILES: Cc1cccc(C)c1-c1cc2nc(n1)NS(=O)(=O)c1cccc(c1)C(=O)N1[C@@H](c3ncc(OC(C)C)cn3)CCC[C@@H](O2)[C@H]1CC(C)C [Compound 422]

activation at 3 µM [3]: 30 to 60%
SMILES: Cc1cccc(C)c1-c1cc2nc(n1)NS(=O)(=O)c1cccc(c1)C(=O)N1[C@@H](c3ncc(OC(C)C)cn3)CCC[C@H]1[C@H](CC(C)C)O2 [Compound 423]

activation at 3 µM [3]: 30 to 60%
SMILES: Cc1cccc(C)c1-c1cc2nc(n1)NS(=O)(=O)c1cccc(c1)C(=O)N1[C@@H](c3ncc(OC(C)C)cn3)CCC[C@H]1[C@@H](CC(C)C)O2 [Compound 424]

activation at 3 µM [3]: 30 to 60%
SMILES: Cc1cccc(C)c1-c1cc2nc(n1)NS(=O)(=O)c1cccc(c1)C(=O)N1[C@@H](c3cccc(N(C)C4CC5(CC5)C4)n3)CC[C@H]1[C@@H](CC(C)C)O2 [Compound 425]

activation at 3 µM [3]: 30 to 60%
SMILES: Cc1cccc(C)c1-c1cc2nc(n1)NS(=O)(=O)c1cccc(c1)C(=O)N1[C@@H](c3ncc(OC(C)C)cn3)CC[C@H](O2)[C@H]1CC(C)C [Compound 426]
